From publication PMC5578959, “Selective LRRK2 kinase inhibition reduces phosphorylation of endogenous Rab10 and Rab12 in human peripheral mononuclear blood cells” (Scientific Reports, 2017)

What was measured:
Rab12-pSer106 = assay: Western Blot, cultured immune stimulated human PBMCs; type: cell-based; conditions: 100 nM, 1hr or 24 hrs
Method: PBMC were isolated from fresh blood collected within a maximal time of 4 hours after blood collection. Leucosep tubes (Greiner 227290) was added 15 ml Ficoll (GE Healthcare 17-440-03) and spun 30 s at 1000 × g. Blood was diluted 1:1 using D-PBS 1X (Gibco 14190), transfered to the Leucosep and centrifuged at 800 g for 15 min without brake. The upper layer corresponding to the diluted plasma was removed and the PBMC layer collected using a pipette or by pouring into a clean BD Falcon 50 ml tube. Cells were re-suspended and washed four times with 10 ml of D-PBS 1X (Gibco 14190) followed by centrifugation at 250 g for 10 min with brake at room temperature. The supernatant was discarded and the cells re-suspended in Complete medium equilibrated to 37 °C. The number of dead and living cells were counted on a Nucleocounter and used to calculate percent viability. […]
Cell pellets were resuspended and solubilized in 100 µL lysis buffer (50 mM Tris hydrochloride, 1 mM magnesium chloride, 1% Triton, 0.1% sodium dodecyl sulfate (SDS), pH 8.0) on ice for 20 minutes and then centrifuged at 20,000 g for 30 minutes at 4 °C. […] The proteins were visually detected by infrared imaging using Odyssey CLx (LI-COR, Nebraska, US). Membranes were scanned and band intensities were quantified using the Image Studio version 3.1.4 (LI-COR, Nebraska).

Rab10-pThr73 = assay: as above; type: cell-based; conditions: 100 nM
Method: PBMC were isolated from fresh blood collected within a maximal time of 4 hours after blood collection. Leucosep tubes (Greiner 227290) was added 15 ml Ficoll (GE Healthcare 17-440-03) and spun 30 s at 1000 × g. Blood was diluted 1:1 using D-PBS 1X (Gibco 14190), transfered to the Leucosep and centrifuged at 800 g for 15 min without brake. The upper layer corresponding to the diluted plasma was removed and the PBMC layer collected using a pipette or by pouring into a clean BD Falcon 50 ml tube. Cells were re-suspended and washed four times with 10 ml of D-PBS 1X (Gibco 14190) followed by centrifugation at 250 g for 10 min with brake at room temperature. The supernatant was discarded and the cells re-suspended in Complete medium equilibrated to 37 °C. The number of dead and living cells were counted on a Nucleocounter and used to calculate percent viability.
Freshly isolated PBMCs were plated at a density ranging from 7–20 × 10^6 cells in 10 cm petri dishes (Costar 3262) in RPMI-1640 media (Gibco 61870–010) supplemented with 10% non-heat inactivated FBS, 5 ml Antimycotic (Sigma cat:5965) with or without an immune stimulation cocktail consisting of 400 nM phorbol 12-myristate 13-acetate (PMA) and 100 ng/ml interferon-γ (INF-γ). After 48 hrs in culture the cultures were added a fifth of the volume media containing 5x the final concentration of the respective LRRK2 inhibitor with or without PMA and interferon-γ. […] After 72 hrs in culture the PBMC’s were harvested, pelleted and fresh-frozen on dry-ice. An aliquot of PBMCs was used for assessment of PBMC yield and viability.
Cell pellets were resuspended and solubilized in 100 µL lysis buffer (50 mM Tris hydrochloride, 1 mM magnesium chloride, 1% Triton, 0.1% sodium dodecyl sulfate (SDS), pH 8.0) on ice for 20 minutes and then centrifuged at 20,000 g for 30 minutes at 4 °C. The solubilized crude cell lysate was size mobility separated by SDS-polyacrylamide gel electrophoresis (SDS-PAGE). LRRK2 was separated on a 3–8% Tris-Acetate gel (NuPAGE® Tris-Acetate Mini Gels, Life Technologies, Paisley, UK) and Rab10 and Rab12 were separated using a NuPAGE® Novex 4–12% Bis-Tris Gel (Invitrogen, California, US). An amount of 10 µg total protein was loaded in each well. Proteins were transferred to immobilon-FL PVDF membranes (Millipore, Billerica, US). […] The proteins were visually detected by infrared imaging using Odyssey CLx (LI-COR, Nebraska, US). Membranes were scanned and band intensities were quantified using the Image Studio version 3.1.4 (LI-COR, Nebraska).

MSK2 domain1 = test system: T1, MSK2 domain1; assay: KiNativ profiling in human PBMCs; type: binding; conditions: Lys2
T1 construct: MSK2 domain1; purchased ActivX Technologies (KiNativ)
Method: (§1) Compounds were shipped to ActivX Technologies (San Diego, US) where LRRK2 target engagement and broad kinase profiling was performed using KiNativ™ procedures. Live cell treatment of human peripheral blood mononuclear cells (PBMCs) at two compound concentrations (1 µM and 0.1 µM) were used to evaluate and compare in vitro target engagement and kinase selectivity, respectively (see Supplementary File 1).

IKKe,TBK1 = assay: KiNativ profiling in human PBMCs; type: binding; conditions: Lys2
Method: as §1

TLK1 = test system: T2, TLK1; assay: KiNativ profiling in human PBMCs; type: binding
T2 construct: purchased ActivX Technologies (KiNativ)
Method: as §1

MAP3K4 = test system: T3, MAP3K4; assay: KiNativ profiling in human PBMCs; type: binding; conditions: Lys2
T3 construct: purchased ActivX Technologies (KiNativ)
Method: as §1

SGK3 = test system: T4, SGK3; assay: KiNativ profiling in human PBMCs; type: binding; conditions: Lys2
T4 construct: purchased ActivX Technologies (KiNativ)
Method: as §1

GCK = test system: T5, GCK; assay: KiNativ profiling in human PBMCs; type: binding
T5 construct: purchased ActivX Technologies (KiNativ)
Method: as §1

LOK = test system: T6, LOK; assay: KiNativ profiling in human PBMCs; type: binding
T6 construct: purchased ActivX Technologies (KiNativ)
Method: as §1

KSR1 = test system: T7, KSR1; assay: KiNativ profiling in human PBMCs; type: binding; conditions: 0.1µM; Activation Loop
T7 construct: purchased ActivX Technologies (KiNativ)
Method: as §1

MSK1 domain1 = test system: T8, MSK1 domain1; assay: KiNativ profiling in human PBMCs; type: binding; conditions: Lys2
T8 construct: MSK1 domain1; purchased ActivX Technologies (KiNativ)
Method: as §1

TLK2 = test system: T9, TLK2; assay: KiNativ profiling in human PBMCs; type: binding; conditions: Lys2
T9 construct: purchased ActivX Technologies (KiNativ)
Method: as §1

CaMK1d = test system: T10, CaMK1d; assay: KiNativ profiling in human PBMCs; type: binding
T10 construct: purchased ActivX Technologies (KiNativ)
Method: as §1

NEK1 = test system: T11, NEK1; assay: KiNativ profiling in human PBMCs; type: binding; conditions: Lys2
T11 construct: purchased ActivX Technologies (KiNativ)
Method: as §1

[1] = test system: ZC1/HGK,ZC2/TNIK,ZC3/MINK; assay: KiNativ profiling in human PBMCs; type: binding; conditions: Lys2
Method: as §1

CDK7 = test system: T12, CDK7; assay: KiNativ profiling in human PBMCs; type: binding
T12 construct: purchased ActivX Technologies (KiNativ)
Method: as §1

MARK2,MARK3 = assay: KiNativ profiling in human PBMCs; type: binding; conditions: Lys2
Method: as §1

RSK2 domain1 = test system: T13, RSK2 domain1; assay: KiNativ profiling in human PBMCs; type: binding
T13 construct: RSK2 domain1; purchased ActivX Technologies (KiNativ)
Method: as §1

MAP3K2 = test system: T14, MAP3K2; assay: KiNativ profiling in human PBMCs; type: binding; conditions: Lys1
T14 construct: purchased ActivX Technologies (KiNativ)
Method: as §1

p70S6K,p70S6Kb = assay: KiNativ profiling in human PBMCs; type: binding; conditions: ATP Loop
Method: as §1

BTK = test system: T15, BTK; assay: KiNativ profiling in human PBMCs; type: binding; conditions: Activation Loop
T15 construct: purchased ActivX Technologies (KiNativ)
Method: as §1

FYN,SRC,YES = assay: KiNativ profiling in human PBMCs; type: binding; conditions: Activation Loop
Method: as §1

IKKa = test system: T16, IKKa; assay: KiNativ profiling in human PBMCs; type: binding; conditions: Lys2
T16 construct: purchased ActivX Technologies (KiNativ)
Method: as §1

PKN1 = test system: T17, PKN1; assay: KiNativ profiling in human PBMCs; type: binding; conditions: Lys1
T17 construct: purchased ActivX Technologies (KiNativ)
Method: as §1

PKCa,PKCb = assay: KiNativ profiling in human PBMCs; type: binding; conditions: Lys2
Method: as §1

ULK3 = test system: T18, ULK3; assay: KiNativ profiling in human PBMCs; type: binding
T18 construct: purchased ActivX Technologies (KiNativ)
Method: as §1

DGKA = test system: T19, DGKA; assay: KiNativ profiling in human PBMCs; type: binding; conditions: ATP
T19 construct: purchased ActivX Technologies (KiNativ)
Method: as §1

PIP5K3 = test system: T20, PIP5K3; assay: KiNativ profiling in human PBMCs; type: binding; conditions: ATP
T20 construct: purchased ActivX Technologies (KiNativ)
Method: as §1

RSK2 domain2 = test system: T21, RSK2 domain2; assay: KiNativ profiling in human PBMCs; type: binding; conditions: Lys2
T21 construct: RSK2 domain2; purchased ActivX Technologies (KiNativ)
Method: as §1

JNK1,JNK2,JNK3 = assay: KiNativ profiling in human PBMCs; type: binding; conditions: Lys2
Method: as §1

LKB1 = test system: T22, LKB1; assay: KiNativ profiling in human PBMCs; type: binding; conditions: Lys2
T22 construct: purchased ActivX Technologies (KiNativ)
Method: as §1

PIP4K2C = test system: T23, PIP4K2C; assay: KiNativ profiling in human PBMCs; type: binding; conditions: ATP
T23 construct: purchased ActivX Technologies (KiNativ)
Method: as §1

TAO2 = test system: T24, TAO2; assay: KiNativ profiling in human PBMCs; type: binding; conditions: Lys2
T24 construct: purchased ActivX Technologies (KiNativ)
Method: as §1

CaMK2d = test system: T25, CaMK2d; assay: KiNativ profiling in human PBMCs; type: binding; conditions: Lys1
T25 construct: purchased ActivX Technologies (KiNativ)
Method: as §1

PKD2 = test system: T26, PKD2; assay: KiNativ profiling in human PBMCs; type: binding; conditions: Lys1
T26 construct: purchased ActivX Technologies (KiNativ)
Method: as §1

PLK1 = test system: T27, PLK1; assay: KiNativ profiling in human PBMCs; type: binding; conditions: Lys1
T27 construct: purchased ActivX Technologies (KiNativ)
Method: as §1

SMILES: Cc1cccc(-c2cc(Nc3ccn(C)n3)nc3[nH]cc(C#N)c23)c1 [Lu AF58786]
- inhibition of Rab12 phosphorylation (Rab12-pSer106) (Rab12-pSer106): not able to significant inhibit
- inhibition of Rab10 phosphorylation (Rab10-pThr73/total Rab10) (Rab10-pThr73; 1 hr): not at 1 hr
- inhibition of Rab10 phosphorylation (Rab10-pThr73/total Rab10) (Rab10-pThr73; 24 hrs): able to inhibit Rab10 phosphorylation at 24 hrs
- Inhibition (MSK2 domain1; 0.1µM): 28.3%
- Inhibition (MSK2 domain1; 1µM): 19.0%
- Inhibition (IKKe,TBK1; 0.1µM): -16.4%
- Inhibition (IKKe,TBK1; 1µM): -9.8%
- Inhibition (TLK1; 0.1µM, Lys1): 2.2%
- Inhibition (TLK1; 0.1µM, Lys2): 16.2%
- Inhibition (TLK1; 1µM, Lys1): 15.4%
- Inhibition (TLK1; 1µM, Lys2): 4.7%
- Inhibition (MAP3K4; 0.1µM): 11.1%
- Inhibition (MAP3K4; 1µM): -2.7%
- Inhibition (SGK3; 0.1µM): -8.9%
- Inhibition (SGK3; 1µM): 13.9%
- Inhibition (GCK; 0.1µM, Lys1): 14.1%
- Inhibition (GCK; 0.1µM, Lys2): 16.9%
- Inhibition (GCK; 1µM, Lys1): 5.5%
- Inhibition (GCK; 1µM, Lys2): -3.1%
- Inhibition (LOK; 0.1µM, Lys1): 13.2%
- Inhibition (LOK; 0.1µM, Lys2): 1.8%
- Inhibition (LOK; 1µM, Lys1): 9.9%
- Inhibition (KSR1): -19.0%
- Inhibition (MSK1 domain1; 0.1µM): 15.8%
- Inhibition (MSK1 domain1; 1µM): 1.9%
- Inhibition (TLK2; 0.1µM): 13.3%
- Inhibition (TLK2; 1µM): -1.2%
- Inhibition (CaMK1d; 0.1µM, Lys1): 11.8%
- Inhibition (CaMK1d; 0.1µM, Lys2): -11.6%
- Inhibition (CaMK1d; 1µM, Lys1): -4.5%
- Inhibition (CaMK1d; 1µM, Lys2): -6.3%
- Inhibition (NEK1; 0.1µM): -2.3%
- Inhibition (NEK1; 1µM): -14.0%
- Inhibition ([1]; 0.1µM): 6.6%
- Inhibition ([1]; 1µM): -3.7%
- Inhibition (CDK7; 0.1µM, Lys1): 3.7%
- Inhibition (CDK7; 0.1µM, Lys2): 9.8%
- Inhibition (CDK7; 1µM, Lys1): -0.256%
- Inhibition (CDK7; 1µM, Lys2): 18.0%
- Inhibition (MARK2,MARK3; 0.1µM): -38.4%
- Inhibition (MARK2,MARK3; 1µM): -36.2%
- Inhibition (RSK2 domain1; 0.1µM, ATP Loop): 26.3%
- Inhibition (RSK2 domain1; 0.1µM, Activation Loop): 16.6%
- Inhibition (RSK2 domain1; 0.1µM, Lys2): 1.6%
- Inhibition (RSK2 domain1; 1µM, ATP Loop): 13.9%
- Inhibition (RSK2 domain1; 1µM, Activation Loop): 32.7%
- Inhibition (RSK2 domain1; 1µM, Lys2): 27.1%
- Inhibition (MAP3K2; 0.1µM): 26.8%
- Inhibition (MAP3K2; 1µM): 18.5%
- Inhibition (p70S6K,p70S6Kb; 0.1µM): 3.7%
- Inhibition (p70S6K,p70S6Kb; 1µM): -2.7%
- Inhibition (BTK; 0.1µM): 25.8%
- Inhibition (BTK; 1µM): 9.5%
- Inhibition (FYN,SRC,YES; 0.1µM): -6.7%
- Inhibition (FYN,SRC,YES; 1µM): -2.5%
- Inhibition (IKKa; 0.1µM): 9.8%
- Inhibition (IKKa; 1µM): 6.8%
- Inhibition (PKN1; 0.1µM): 18.4%
- Inhibition (PKN1; 1µM): 13.6%
- Inhibition (PKCa,PKCb; 0.1µM): -5.7%
- Inhibition (PKCa,PKCb; 1µM): -0.9%
- Inhibition (ULK3; 0.1µM, Lys1): 3.2%
- Inhibition (ULK3; 0.1µM, Lys2): -16.6%
- Inhibition (ULK3; 1µM, Lys1): 2.2%
- Inhibition (ULK3; 1µM, Lys2): -15.6%
- Inhibition (DGKA; 0.1µM): 1.1%
- Inhibition (DGKA; 1µM): -1.9%
- Inhibition (PIP5K3; 0.1µM): -2.2%
- Inhibition (PIP5K3; 1µM): 4.2%
- Inhibition (RSK2 domain2; 0.1µM): -3.4%
- Inhibition (RSK2 domain2; 1µM): 2.8%
- Inhibition (JNK1,JNK2,JNK3; 0.1µM): 30.2%
- Inhibition (JNK1,JNK2,JNK3; 1µM): 71.2%
- Inhibition (LKB1; 0.1µM): 6.1%
- Inhibition (LKB1; 1µM): 3.9%
- Inhibition (PIP4K2C; 0.1µM): 19.6%
- Inhibition (PIP4K2C; 1µM): 31.1%
- Inhibition (TAO2; 0.1µM): 17.3%
- Inhibition (TAO2; 1µM): 18.3%
- Inhibition (CaMK2d; 0.1µM): 3.9%
- Inhibition (CaMK2d; 1µM): -3.2%
- Inhibition (PKD2; 0.1µM): 14.5%
- Inhibition (PKD2; 1µM): 15.3%
- Inhibition (PLK1; 0.1µM): -7.7%
- Inhibition (PLK1; 1µM): -19.7%
